Reference: US9580449B2, “Compositions and methods for the production of pyrimidine and pyridine compounds with BTK inhibitory activity” (Merck Patent GmbH, priority 2011, dated 2017)

Each compound was assayed against full-length human BTK (Homo sapiens (Human), UniProt Q06187) (assay: BTK IC50 enzyme assay (microfluidic off-chip mobility shift kinase assay)). Conditions: incubated for 90 min. at 27 C; read-out: Time Dependent BTK Enzyme Assay IC50.
Type: biochemical
Method: The following describes a microfluidic, off-chip mobility shift kinase assay used to measure inherent potency of compounds against BTK enzyme. Compounds described by embodiments of the present invention were assayed using this protocol and the data from the same is recorded in Table 2 within the column labeled: “Time Dependent BTK Enzyme Assay IC50”.
Stopped reactions were monitored at −2 PSI, −3000 V/−700 V in a LabChip 3000 plate reader from Caliper Life Sciences, a PerkinElmer Company (Hopkinton, Mass.), and the activity was measured by off-chip mobility shift assay measuring the charge/mass difference between substrate and product resulting from peptide phosphorylation. IC50 and efficacy were determined by plotting log [Inhibitor] vs. % Activity in GeneData Screener (Basel, Switzerland). […] I<1 uM and II>1 uM.

full-length human BTK, sequence (Q06187 whole entry): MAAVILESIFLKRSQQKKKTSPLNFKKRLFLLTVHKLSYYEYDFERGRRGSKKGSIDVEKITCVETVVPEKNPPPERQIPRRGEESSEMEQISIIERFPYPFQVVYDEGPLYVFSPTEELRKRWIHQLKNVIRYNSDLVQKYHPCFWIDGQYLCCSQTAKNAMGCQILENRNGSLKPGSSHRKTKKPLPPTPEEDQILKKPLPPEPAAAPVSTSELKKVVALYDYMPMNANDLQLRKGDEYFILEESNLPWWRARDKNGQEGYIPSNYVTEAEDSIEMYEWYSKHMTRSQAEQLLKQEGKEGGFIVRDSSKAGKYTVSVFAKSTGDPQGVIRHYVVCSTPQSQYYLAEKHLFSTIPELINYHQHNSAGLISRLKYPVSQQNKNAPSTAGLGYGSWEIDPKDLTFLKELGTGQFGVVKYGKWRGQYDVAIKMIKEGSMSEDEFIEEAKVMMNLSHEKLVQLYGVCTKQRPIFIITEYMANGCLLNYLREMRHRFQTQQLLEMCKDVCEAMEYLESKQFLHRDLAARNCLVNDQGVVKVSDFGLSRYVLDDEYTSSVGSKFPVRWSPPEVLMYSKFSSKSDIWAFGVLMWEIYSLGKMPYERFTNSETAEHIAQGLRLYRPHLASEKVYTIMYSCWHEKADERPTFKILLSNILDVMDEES

Structure (SMILES) | IC50
C=CC(=O)N[C@H]1C[C@H](O)C[C@@H](Nc2ncnc(N)c2-c2ccc(Oc3ccccc3)cc2)C1 (racemic) [A188, N-((1R,3S,5R)-3-((6-amino-5-(4-phenoxyphenyl)pyrimidin-4-yl)amino)-5-hydroxycyclohexyl)acrylamide] | < 1 µM
C=CC(=O)NCC1CCN(c2ncnc(N)c2-c2ccc(Oc3ccccc3)cc2)CC1 [A7, N-((1-(6-amino-5-(4-phenoxyphenyl)pyrimidin-4-yl)piperidin-4-yl)methyl)acrylamide] | > 1 µM
CC#CC(=O)N1CCC(COc2ncnc(N)c2-c2ccc(Oc3ccccc3)cc2)CC1 [A9, 1-(4-(((6-amino-5-(4-phenoxyphenyl)pyrimidin-4-yl)oxy)methyl)piperidin-1-yl)but-2-yn-1-one] | < 0.1 µM
COCCN(C)C/C=C/C(=O)N1CCC(CNc2ncnc(N)c2-c2ccc(Oc3ccccc3)cc2)CC1 [A11, (E)-1-(4-(((6-amino-5-(4-phenoxyphenyl)pyrimidin-4-yl)amino)methyl)piperidin-1-yl)-4-((2-methoxyethyl)(methyl)amino)but-2-en-1-one] | > 1 µM
C=CC(=O)N1CC[C@@H](Oc2ncnc(N)c2-c2ccc(Oc3ccccc3)cc2)C1 [A19, (R)-1-(3-((6-amino-5-(4-phenoxyphenyl)pyrimidin-4-yl)oxy)pyrrolidin-1-yl)prop-2-en-1-one] | < 0.1 µM
C=CC(=O)NC1(CNc2ncnc(N)c2-c2ccc(Oc3ccccc3)cc2)CCCC1 [A20, N-(1-(((6-amino-5-(4-phenoxyphenyl)pyrimidin-4-yl)amino)methyl)cyclopentyl)acrylamide] | > 1 µM
C=CC(=O)N1CCC(CNc2nc(C)nc(N)c2-c2ccc(Oc3ccccc3)cc2)CC1 [A36, 1-(4-(((6-amino-2-methyl-5-(4-phenoxyphenyl)pyrimidin-4-yl)amino)methyl)piperidin-1-yl)prop-2-en-1-one] | > 1 µM
Nc1ncnc(NCC2CCN(C(=O)C3=CCC3)CC2)c1-c1ccc(Oc2ccccc2)cc1 [A42, (4-(((6-amino-5-(4-phenoxyphenyl)pyrimidin-4-yl)amino)methyl)piperidin-1-yl)(cyclobut-1-en-1-yl)methanone] | < 1 µM
C/C=C\C(=O)N1CCC(COc2ncnc(N)c2-c2ccc(Oc3ccccc3)cc2)CC1 [A43, (Z)-1-(4-(((6-amino-5-(4-phenoxyphenyl)pyrimidin-4-yl)oxy)methyl)piperidin-1-yl)but-2-en-1-one] | < 1 µM
C#CC(=O)N1CCC(CNc2ncnc(N)c2-c2ccc(Oc3ccccc3)cc2)CC1 [A46, 1-(4-(((6-amino-5-(4-phenoxyphenyl)pyrimidin-4-yl)amino)methyl)piperidin-1-yl)prop-2-yn-1-one] | < 0.1 µM
C=CC(=O)N1CCC(CN(C)c2ncnc(N)c2-c2ccc(Oc3ccccc3)cc2)CC1 [A47, 1-(4-(((6-amino-5-(4-phenoxyphenyl)pyrimidin-4-yl)(methyl)amino)methyl)piperidin-1-yl)prop-2-en-1-one] | < 1 µM
C=CC(=O)NCCCCNc1ncnc(N)c1-c1ccc(Oc2ccccc2)cc1 [A50, N-(4-((6-amino-5-(4-phenoxyphenyl)pyrimidin-4-yl)amino)butyl)acrylamide] | < 1 µM
Nc1ncnc(NCC2CCN(C(=O)C(O)CO)CC2)c1-c1ccc(Oc2ccccc2)cc1 (centres unmarked) [A56, 1-(4-(((6-amino-5-(4-phenoxyphenyl)pyrimidin-4-yl)amino)methyl)piperidin-1-yl)-2,3-dihydroxypropan-1-one] | > 1 µM
C=CS(=O)(=O)Nc1cccc(Oc2ncnc(N)c2-c2ccc(Oc3ccccc3)cc2)c1 [A58, N-(3-((6-amino-5-(4-phenoxyphenyl)pyrimidin-4-yl)oxy)phenyl)ethenesulfonamide] | < 0.1 µM
C=CC(=O)Nc1cncc(Oc2ncnc(N)c2-c2ccc(Oc3ccccc3)cc2)c1 [A60, N-(5-((6-amino-5-(4-phenoxyphenyl)pyrimidin-4-yl)oxy)pyridin-3-yl)acrylamide] | < 0.1 µM
C=CC(=O)N1CCO[C@H](COc2ncnc(N)c2-c2ccc(Oc3ccccc3)cc2)C1 [A65, (S)-1-(2-(((6-amino-5-(4-phenoxyphenyl)pyrimidin-4-yl)oxy)methyl)morpholino)prop-2-en-1-one] | < 0.1 µM
C=CC(=O)N1CCO[C@@H](COc2ncnc(N)c2-c2ccc(Oc3ccccc3)cc2)C1 [A66, (R)-1-(2-(((6-amino-5-(4-phenoxyphenyl)pyrimidin-4-yl)oxy)methyl)morpholino)prop-2-en-1-one] | < 0.1 µM

Continued, values first:

IC50 | Structure (SMILES)
< 1 µM | C=CC(=O)N1CC[C@@H](CNc2ncnc(N)c2-c2ccc(Oc3ccc(C#N)cc3)cc2)[C@H](O)C1 (racemic) [A199, 4-(4-(4-((((3S,4S)-1-acryloyl-3-hydroxypiperidin-4-yl)methyl)amino)-6-aminopyrimidin-5-yl)phenoxy)benzonitrile]
< 1 µM | C=CC(=O)N1CC[C@@H](O)[C@H](Nc2ncnc(N)c2-c2ccc(Oc3ccccc3)cc2)C1 (racemic) [A210, 1-((3R,4R)-3-((6-amino-5-(4-phenoxyphenyl)pyrimidin-4-yl)amino)-4-hydroxypiperidin-1-yl)prop-2-en-1-one]
< 1 µM | CN(C)C/C=C/C(=O)N[C@@H]1CCC[C@H](Nc2ncnc(N)c2-c2ccc(Oc3ccccc3)cc2)C1 (relative stereo) [A63, (E)-N-(cis-3-((6-amino-5-(4-phenoxyphenyl)pyrimidin-4-yl)amino)cyclohexyl)-4-(dimethylamino)but-2-enamide]
> 1 µM | C/C=C/C(=O)N1CCC(CNc2ncnc(N)c2-c2ccc(Oc3ccccc3)cc2)CC1 [A13, (E)-1-(4-(((6-amino-5-(4-phenoxyphenyl)pyrimidin-4-yl)amino)methyl)piperidin-1-yl)but-2-en-1-one]
> 1 µM | C=CC(=O)N1CCC(CCNc2ncnc(N)c2-c2ccc(Oc3ccccc3)cc2)CC1 [A16, 1-(4-(2-((6-amino-5-(4-phenoxyphenyl)pyrimidin-4-yl)amino)ethyl)piperidin-1-yl)prop-2-en-1-one]
< 0.1 µM | C=CC(=O)N1CCCC(COc2ncnc(N)c2-c2ccc(Oc3ccccc3)cc2)C1 (centres unmarked) [A17, 1-(3-(((6-amino-5-(4-phenoxyphenyl)pyrimidin-4-yl)oxy)methyl)piperidin-1-yl)prop-2-en-1-one]
< 1 µM | C=CC(=O)NCCNc1ncnc(N)c1-c1ccc(Oc2ccccc2)cc1 [A18, N-(2-((6-amino-5-(4-phenoxyphenyl)pyrimidin-4-yl)amino)ethyl)acrylamide]
> 1 µM | CC1=CC(C)=[N+]2C1=Cc1ccc(CCC(=O)N3CCN(C/C=C/C(=O)Nc4cccc(Oc5ncnc(N)c5-c5ccc(Oc6ccccc6)cc5)c4)CC3)n1[B-]2(F)F [A24, (E)-7-(3-(4-(4-((3-((6-amino-5-(4-phenoxyphenyl)pyrimidin-4-yl)oxy)phenyl)amino)-4-oxobut-2-en-1-yl)piperazin-1-yl)-3-oxopropyl)-5,5-difluoro-1,3-dimethyl-5H-dipyrrolo[1,2-c:2′,1′-f][1,3,2]diazaborinin-4-ium-5-uide]
> 1 µM | C=CC(=O)N1CCC(CNc2nc(N)ncc2-c2ccc(Oc3ccccc3)cc2)CC1 [A25, 1-(4-(((2-amino-5-(4-phenoxyphenyl)pyrimidin-4-yl)amino)methyl)piperidin-1-yl)prop-2-en-1-one]
> 1 µM | C=CC(=O)NCCOc1ncnc(N)c1-c1ccc(Oc2ccccc2)cc1 [A27, N-(2-((6-amino-5-(4-phenoxyphenyl)pyrimidin-4-yl)oxy)ethyl)acrylamide]
> 1 µM | C=CC(=O)N1CCC(CNc2ncnc(N)c2-c2cnn(Cc3ccccc3)c2)CC1 [A33, 1-(4-(((6-amino-5-(1-benzyl-1H-pyrazol-4-yl)pyrimidin-4-yl)amino)methyl)piperidin-1-yl)prop-2-en-1-one]
< 1 µM | Nc1ncnc(Oc2cccc(N3CC=CC3=O)c2)c1-c1ccc(Oc2ccccc2)cc1 [A40, 1-(3-((6-amino-5-(4-phenoxyphenyl)pyrimidin-4-yl)oxy)phenyl)-1H-pyrrol-2(5H)-one]
< 0.1 µM | C=CC(=O)N1CCC(CNc2ncnc(N)c2-c2ccc(Cc3ccccc3)cc2)CC1 [A41, 1-(4-(((6-amino-5-(4-benzylphenyl)pyrimidin-4-yl)amino)methyl)piperidin-1-yl)prop-2-en-1-one]
> 1 µM | C=CC(=O)N1CCC(CN(C)c2nc(C)nc(N)c2-c2ccc(Oc3ccccc3)cc2)CC1 [A44, 1-(4-(((6-amino-2-methyl-5-(4-phenoxyphenyl)pyrimidin-4-yl)(methyl)amino)methyl)piperidin-1-yl)prop-2-en-1-one]
< 1 µM | C=CC(=O)NCCCNc1ncnc(N)c1-c1ccc(Oc2ccccc2)cc1 [A59, N-(3-((6-amino-5-(4-phenoxyphenyl)pyrimidin-4-yl)amino)propyl)acrylamide]
< 0.1 µM | C#CC(=O)N1CC[C@H](CNc2ncnc(N)c2-c2ccc(Oc3ccccc3)cc2)C1 [A61, (R)-1-(3-(((6-amino-5-(4-phenoxyphenyl)pyrimidin-4-yl)amino)methyl)pyrrolidin-1-yl)prop-2-yn-1-one]
< 1 µM | CN(C)C/C=C/C(=O)N1CC[C@H](CNc2ncnc(N)c2-c2ccc(Oc3ccccc3)cc2)C1 [A62, (R,E)-1-(3-(((6-amino-5-(4-phenoxyphenyl)pyrimidin-4-yl)amino)methyl)pyrrolidin-1-yl)-4-(dimethylamino)but-2-en-1-one]
